In patent US20250017895A1, “FLAVANOID CONTAINING COMPOSITIONS AND METHODS OF USE THEREOF FOR THE TREATMENT OF MITOCHONDRIAL DISORDERS” (priority 2021, published 2025):
Entries after “also recorded” stand apart in the source; their conditions may differ.

Legend:
[1] = system: gas-1(fc21) ndufs2−/− complex I disease mutant worms; test: C. elegans gas-1(fc21) lifespan analysis; type: in vivo; conditions: FUDR used
Excerpt: FIG. 2C, the Table below FIGS. 2A and 2B indicates specific values and P values calculated in Graphpad Prism v5.0 for graph shown in FIG. 2B (survival data is shown in days).
(§1) Neuromuscular activity, and lifespan were quantified in the C. elegans gas-1(fc21) ndufs2^−/− mutants. A semi-automated screening method (Mathew et al, 2016) was used to test drug treatment effects on an integrated C. elegans health endpoint of fecundity, brood size, and behavior.
(−) Epicatechin and (+) Epicatechins act through mimicry of the endogenous mitochondrial steroid 11-β-hydroxypregnenolone (11-OHP), a potent inducer of mitochondrial biogenesis. C. elegans nematode strains studied included wild-type (N2 Bristol) and gas-1(fc21) mutants. […] FIGS. 2D, 2E and 2F are graphs show a side-by-side comparison of (+)-epicatechin, (−)-epicatechin and 11-0HP on gas-1(fc-21) worm survival.

[2] = system: nutrient sensing signaling network (NSSN) gene expression; test: NSSN gene expression and RNAseq KEGG pathway profiling in gas-1(fc21) worms; type: in vivo, C. elegans; conditions: 24 hours; for MAPK signaling pathway expression (RNAseq, KEGG): relative to DMSO-only buffer
Excerpt: RQ, relative quantitation. […] Pathways marked with a star are also positively modulated in this same mitochondrial disease animal model by combination glucose+nicotinic acid+N-acetylcysteine triple therapy.
It is already evident that epicatechin therapy in some diseases can favorably alter the activities of central NSSN nodes, such as AMPK, that are known to regulate cell proliferation, autophagy, and mitochondrial proliferation. […] The pathways marked with a star can similarly be restored in gas-1(fc21) complex I deficient worms by combination therapy of glucose+nicotinic acid+N-acetylcysteine.

[3] = system: gas-1(fc21) mitochondrial complex I disease worms; test: Worm neuromuscular activity by body bend rate analysis; type: in vivo, C. elegans; conditions: 100 nMol
Excerpt: FIGS. 5A and 5B: Worm neuromuscular activity as assayed by body bend rate analysis was reduced in gas-1(fc21) mitochondrial complex I disease ndufs2^−/− worms relative to wild-type (N2 Bristol) worms.
as §1

AB (wild-type) zebrafish = test: AB wild-type zebrafish swimming activity with high-dose rotenone; type: in vivo, Danio rerio
Excerpt: Each symbol indicates one fish. **, p<0.01. ***, p<0.001.
EP07, 11-hydroxyprogesterone. **, p<0.01. Each symbol conveys activity of one well with n=8 animals/well in a 96-well plate, as quantified in dark-cycle analysis in the Zebrabox (Viewpoint).
Swimming activity (Zebrabox) was quantified in first five-minute periods of three consecutive dark cycles across 3 biological replicate experiments. Activity score was normalized to percent of wild-type concurrent controls. […] AB (wild-type) zebrafish had reduced swimming activity with high dose (70 nM) rotenone exposure for 4 hours on 7 dpf.
The indicated agents were added at 5 and 6 dpf, twice a day. 70 nM rotenone was added on 7 dpf. 4 hours later the larvae were transferred into a 96 well plate (1fish per well, 8 wells per condition), 96-well plates were immediately placed into NOLDUS to evaluate swim activity in repeating light-dark exposure. Swim activity effects were averaged in first 5 minutes of each light-off (‘dark’) period across all light on/off cycles.

[4] = system: gas-1(fc21) ndufs2−/− mutant worms; test: In vivo terminal pharyngeal bulb fluorescence (MitoSOX, MitoTracker Green, TMRE) in gas-1(fc21) worms; set-up: species or system C. elegans
Description: In each panel, n conveys the number of animals studied per conditions. Bars and error bars convey mean and standard error, respectively.
Mitochondrial oxidant burden (MitoSOX Red), membrane potential (tetramethylrhodamine ethyl ester, TMRE), and mitochondrial content (MitoTracker Green FM, MTG) were performed in C. elegans at 20° C. using in vivo terminal pharyngeal bulb relative fluorescence microscopic quantitation. […] Worms were then paralyzed in situ with 5 mg/ml levamisole. Photographs were taken in a darkened room at 160× magnification with a Cool Snap cf2 camera (Nikon, Melville, N.Y.). A CY3 fluorescence cube set (MZFLIII, Leica, Bannockburn, Ill.) was used for MitoSOX and TMRE. A GFP2 filter set (Leica) was used for MitoTracker Green FM. Respective exposure times were 2 s, 320 ms, and 300 ms for each of MitoSOX, TMRE, and MitoTracker Green FM. The resulting images were background subtracted, and the nematode terminal pharyngeal bulb was manually circled to obtain mean intensity of the region by using Fiji Is Just ImageJ. Fluorescence data for each strain were normalized to its same day control to account for day-to-day variation. A minimum of 3 independent experiments of approximately 50 animals per replicate were studied per strain per dye. The significance of the difference in the mean fluorescence intensity between strains under different experimental conditions was assessed by mixed-effect ANOVA, which analyzes potential batch effect due to samples being experimentally prepared, processed, and analyzed on different days by including a batch random effect in the model. A statistical significance threshold was set at P<0.05. All statistical analyses were performed in SAS 9.3.
FIGS. 4A-4E show in vivo quantification of relative mitochondrial oxidant burden, mitochondrial content, and mitochondrial membrane potential in gas-1(fc21) complex I disease worms.

[5] = system: FBXL4-human disease patient fibroblasts; test: FBXL4 patient fibroblast cell death in galactose; type: cell-based; conditions: 20 nM; 72 hours in galactose
Description: (§2) Human fibroblasts were studied from a subject harboring a 1067del (p.Gly356Alafs*15) nonsense mutation in the maternal FBXL4 allele and a c. 1790A>C (p.GLn597Pro) missense mutation in the paternal FBXL4 allele (Gal et al, 2013). Fibroblasts were cultured in DMEM (1 g/L glucose, 0.8 g/L L-Glutamine, 110 mg/L Sodium Pyruvate). Light, fluorescence, confocal microscopy and transmission electron microscopy (TEM, Lavorato et al. 2017) methods were used to analyze proband fibroblasts and mitochondrial morphology at baseline and following metabolic stress induced by incubating cells for 48 hours in glucose/uridine-free media. Mitotracker green was used for fluorescence microscopy, Tom20 Antibody (Santa Cruz) and DAPI was used for confocal microscopy.

[6] = system: human fibroblasts from a patient with FBXL4 disease; test: FBXL4 patient fibroblast mitochondrial content by FACS of Mitotracker Green; type: cell-based; conditions: for increase in cellular mitochondrial content compared to baseline: overnight incubation, data not shown; for improvement of mitochondrial content: 24 hours, galactose media
Description: as §2

ndufs2−/− zebrafish = ndufs2−/− zebrafish dark-induced swimming activity with low-dose rotenone (Zebrabox); type: in vivo, Danio rerio
[7] = system: Pdss2kd/kd homozygous missense mutant mice; test: Liver mitochondrial content (VDAC western blot, citrate synthase activity) in Pdss2kd/kd mice; type: in vivo; conditions: 5 μg/mL or 10 μg/mL in drinking water; both sexes
Pdss2kd/kd mice = test: Liver NAD+, NADH and NADH:NAD+ redox analysis in Pdss2kd/kd mice; type: in vivo; conditions: 5 μg/mL to 10 μg/mL in drinking water; 2 months
Excerpt: FIGS. 17A-17E: Biochemical analysis of mitochondrial amount (citrate synthase activity) and NADH:NAD+ redox balance in coenzyme Q deficient Pdss2^kd/kd mice. […] Biochemical studies are shown both by sex and all grouped together, where n=number of animals studied per group.
Untreated mice included 2M and 1F.

[8] = system: cell or animal models of primary RC dysfunction; test: Overall observations across cell and animal models of primary RC dysfunction
[9] = system: Human podocytes (renal glomerular cells); test: Human podocyte viability / cell death under rotenone complex I inhibition; conditions: for cell death caused by rotenone (45% cell death): 12.5 nM rotenone
[10] = 10 nMol, 72 hours, redosing every 24 hours

## CC(=O)[C@H]1CC[C@H]2[C@@H]3CC=C4C[C@@H](O)CC[C@]4(C)[C@H]3[C@@H](O)C[C@]12C [11-β-hydroxypregnenolone]
[1]; 1 nMol
  lifespan rescue compared to buffer-only treated gas-1(fc21) worms: Significant lifespan rescue
[1]; 10 nMol
  lifespan rescue compared to buffer-only treated gas-1(fc21) worms: Significant lifespan rescue
[2]
  MAPK signaling pathway expression (RNAseq, KEGG): uniquely and substantially modulated
[3]
  impaired neuromuscular function (body bend rate) toward wild-type: protective; also recorded: significantly rescued
AB (wild-type) zebrafish; 2 nM pre-treatment from 5 dpf, high-dose (70 nM) rotenone 4 hours at 7 dpf
  increase in swimming activity toward AB controls: ~25%
AB (wild-type) zebrafish; 6 nM, high-dose (70 nM) rotenone
  swimming activity: significantly improved

## Oc1cc(O)c2c(c1)O[C@@H](c1ccc(O)c(O)c1)[C@@H](O)C2 [(+) epicatechin]
[1]; 1 nMol
  lifespan rescue compared to buffer-only treated gas-1(fc21) worms: Significant lifespan rescue
[1]; 1 nMol, buffer-only gas-1(fc21) 19 days
  median survival: 23 days
[1]; 10 nMol
  lifespan rescue compared to buffer-only treated gas-1(fc21) worms: Significant lifespan rescue
[1]; 10 nMol, buffer-only gas-1(fc21) 27 days
  maximum survival: 31 days
[2]; 10 nM
  Daf-16 (FOXO) expression, downregulated in gas-1(fc21): substantially upregulated
  Par-4 (LKB1) expression, downregulated in gas-1(fc21): increased
[2]; 10 nM, relative to wild-type levels
  SOD2 (mnSOD) expression, upregulated in gas-1(fc21): normalized
[2]
  MAPK signaling pathway expression (RNAseq, KEGG): uniquely and substantially modulated
[4]; 10 nM, 24 hours
  improvement of mitochondrial membrane potential towards wild type levels: 62%
[4]; 10 nM, 24 hours, most improved concentration
  improvement in mitochondrial content (MitoTracker Green): 39%
[4]; 1 nMol, 24 hours
  mitochondrial content: significantly rescued
  mitochondrial oxidant burden: significantly rescued
[4]; 10 nMol, 24 hours
  mitochondrial content: significantly rescued
  mitochondrial membrane potential: significantly recued
  mitochondrial oxidant burden: significantly rescued
[4]; [10]
  mitochondrial content: significant rescue; also recorded: significantly rescued
  mitochondrial oxidant burden: complete reversal; also recorded: significantly rescued
[4]; 100 nMol, 24 hours
  mitochondrial content: significantly rescued
  mitochondrial oxidant burden: significantly rescued
[4]; all concentrations of 3-log order dose range, 24 hours
  mitochondrial oxidant burden (MitoSox): complete normalization
[3]
  impaired neuromuscular function (body bend rate) toward wild-type: rescues; also recorded: significantly rescued
[5]
  increased cell death in galactose: significantly rescued
[6]; 1 nM
  increase in cellular mitochondrial content compared to baseline: 14%
[6]; 10 nM
  increase in cellular mitochondrial content compared to baseline: 21%
[6]; 1 nMol to 20 nMol range
  mitochondrial content: significantly increased
[6]; 1 nMol
  improvement of mitochondrial content: 70%
[6]; 10 nMol
  improvement of mitochondrial content: 70%
ndufs2−/− zebrafish; 100 nM, low-dose (12 nM) rotenone
  swimming activity: significantly improved
ndufs2−/− zebrafish; 100 nMol pre-treatment from 5 dpf, 12 nMol rotenone at 7 dpf
  increase in swimming activity toward wild-type controls: ~25%
[7]
  citrate synthase activity in liver: substantially increased
Pdss2kd/kd mice
  NAD+ deficiency / NADH:NAD+ redox imbalance in liver: did not correct
[8]; C. elegans and human cell studies
  effectiveness of low (nanomolar range) versus higher (micromolar range) concentrations: more effective than higher
[8]; cell or animal models of primary RC dysfunction
  adverse effects: No adverse effects
[9]; 1 nM
  cell death caused by rotenone (45% cell death): not
[9]; 10 nM
  cell death caused by rotenone (45% cell death): improved
[9]; 10 nM, galactose media, 25 nM rotenone, 48 hours
  podocyte viability upon RC inhibition: significantly improved
[9]; 10 nM, glucose media, 35 nM rotenone, 48 hours
  podocyte viability upon RC inhibition: significantly improved
[9]; 100 nM
  cell death caused by rotenone (45% cell death): improved
[9]; 10 to 100 nanomolar, rotenone treated human cells
  improvement in cell viability: approximately 50%
[9]; rotenone, 48 hours
  effectiveness on podocyte viability compared with the other enantiomer: more effective than (−) epicatechin

## Oc1cc(O)c2c(c1)O[C@H](c1ccc(O)c(O)c1)[C@H](O)C2 [(−) epicatechin]
[1]; 10 nMol
  lifespan rescue compared to buffer-only treated gas-1(fc21) worms: Significant lifespan rescue
[1]; 100 nMol
  lifespan rescue compared to buffer-only treated gas-1(fc21) worms: Significant lifespan rescue
[3]
  impaired neuromuscular function (body bend rate) toward wild-type: significantly rescued
